Test results: the supplement of paper PMC10307832

How the values were obtained:
Test in all cases: relative viability (nuclei count vs DMSO), 5 days (fraction); higher = more cells survive
Sorafenib + Navitoclax = compound: CNC(=O)c1cc(Oc2ccc(NC(=O)Nc3ccc(Cl)c(C(F)(F)F)c3)cc2)ccn1 [Sorafenib] + CC1(C)CCC(c2ccc(Cl)cc2)=C(CN2CCN(c3ccc(C(=O)NS(=O)(=O)c4ccc(N[C@H](CCN5CCOCC5)CSc5ccccc5)c(S(=O)(=O)C(F)(F)F)c4)cc3)CC2)C1 [Navitoclax] (partner 0.5 µM)
Method in brief: (§1)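 Relative viability divides the nuclei count in treated wells by that in vehicle wells. Lung cancer cell lines were seeded in 1536-well plates, dosed by pin tool the next day, and fixed and stained after 5 days in one step with final 0.05% Triton X-100, 1% formaldehyde and 1 ug/ml Hoechst. Dosing was a single drug or a fixed anchor-drug dose plus five library-drug doses (not always all listed) in √10 steps, and values are medians of duplicate plates imaged at 4×.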

Sorafenib + Crizotinib = compound: CNC(=O)c1cc(Oc2ccc(NC(=O)Nc3ccc(Cl)c(C(F)(F)F)c3)cc2)ccn1 [Sorafenib] + C[C@@H](Oc1cc(-c2cnn(C3CCNCC3)c2)cnc1N)c1c(Cl)ccc(F)c1Cl [Crizotinib] (partner 1 µM)
Method in brief: as §1

Sorafenib + Trametinib = compound: CNC(=O)c1cc(Oc2ccc(NC(=O)Nc3ccc(Cl)c(C(F)(F)F)c3)cc2)ccn1 [Sorafenib] + CC(=O)Nc1cccc(-n2c(=O)n(C3CC3)c(=O)c3c(Nc4ccc(I)cc4F)n(C)c(=O)c(C)c32)c1 [Trametinib] (partner 0.02 µM)
Method in brief: as §1

Sorafenib + Pictilisib = compound: CNC(=O)c1cc(Oc2ccc(NC(=O)Nc3ccc(Cl)c(C(F)(F)F)c3)cc2)ccn1 [Sorafenib] + CS(=O)(=O)N1CCN(Cc2cc3nc(-c4cccc5[nH]ncc45)nc(N4CCOCC4)c3s2)CC1 [Pictilisib] (partner 1 µM)
Method in brief: as §1

Sorafenib + Luminespib = compound: CNC(=O)c1cc(Oc2ccc(NC(=O)Nc3ccc(Cl)c(C(F)(F)F)c3)cc2)ccn1 [Sorafenib] + CCNC(=O)c1noc(-c2cc(C(C)C)c(O)cc2O)c1-c1ccc(CN2CCOCC2)cc1 [Luminespib] (partner 0.01 µM)
Method in brief: as §1

Cell Line | relative viability (Sorafenib + Navitoclax; first compound 0.08 µM) | relative viability (Sorafenib + Navitoclax; first compound 0.253 µM) | relative viability (Sorafenib + Navitoclax; first compound 2.53 µM) | relative viability (Sorafenib + Navitoclax; first compound 8 µM) | relative viability (Sorafenib + Crizotinib; first compound 0.08 µM) | relative viability (Sorafenib + Crizotinib; first compound 0.253 µM) | relative viability (Sorafenib + Crizotinib; first compound 2.53 µM) | relative viability (Sorafenib + Crizotinib; first compound 8 µM) | relative viability (Sorafenib + Trametinib; first compound 0.08 µM) | relative viability (Sorafenib + Trametinib; first compound 0.253 µM) | relative viability (Sorafenib + Trametinib; first compound 2.53 µM) | relative viability (Sorafenib + Trametinib; first compound 8 µM) | relative viability (Sorafenib + Pictilisib; first compound 0.08 µM) | relative viability (Sorafenib + Pictilisib; first compound 0.253 µM) | relative viability (Sorafenib + Pictilisib; first compound 2.53 µM) | relative viability (Sorafenib + Pictilisib; first compound 8 µM) | relative viability (Sorafenib + Luminespib; first compound 0.08 µM) | relative viability (Sorafenib + Luminespib; first compound 0.253 µM) | relative viability (Sorafenib + Luminespib; first compound 2.53 µM) | relative viability (Sorafenib + Luminespib; first compound 8 µM)
HCC-366 | 1.11 | 0.944 | 1.06 | 1.01 | 0.705 | 0.464 | 0.549 | 0.356 | 0.403 | 0.436 | 0.331 | 0.226 | 0.208 | 0.118 | 0.138 | 0.151 | – | – | – | –
HCC-827 | 1.04 | 1.04 | 0.984 | 0.905 | – | 0.918 | 0.94 | 0.853 | 0.547 | 0.582 | 0.457 | 0.422 | 1.19 | 0.897 | 0.861 | 0.727 | 0.709 | 0.525 | 0.59 | 0.638
HOP-62 | 1.14 | 0.758 | 0.761 | 0.814 | 1.01 | 0.901 | 0.84 | 0.57 | 0.438 | 0.45 | 0.372 | 0.209 | 0.685 | 0.632 | 0.619 | 0.68 | 0.981 | 0.865 | 0.705 | 0.886
IA-LM | 0.579 | 0.385 | 0.488 | 0.438 | 0.573 | 0.623 | 0.494 | 0.4 | – | – | – | – | 0.451 | 0.37 | 0.311 | 0.212 | – | – | – | –
LC-2-ad | 0.343 | 0.413 | 0.418 | 0.218 | 0.496 | 0.447 | 0.511 | 0.421 | 0.934 | 0.822 | 0.732 | 0.396 | 0.432 | 0.369 | 0.32 | 0.193 | 1.01 | 1.04 | 1.06 | 0.879
LCLC-97TM1 | 0.356 | 0.373 | 0.323 | 0.313 | 0.326 | 0.358 | 0.364 | 0.121 | 0.198 | 0.199 | 0.133 | 0.103 | 0.152 | 0.207 | 0.211 | 0.16 | 0.97 | 0.743 | 0.716 | 0.56
LCLC-103H | – | – | – | – | 1.12 | 1.14 | 1.28 | 1.13 | 0.68 | 0.731 | 0.691 | 0.674 | 0.689 | 0.581 | 0.698 | 0.758 | 0.964 | 0.939 | 1.03 | 0.837
LK-2 | 0.904 | 0.793 | 0.819 | 0.477 | 0.208 | – | 0.263 | 0.256 | 0.78 | 0.764 | 0.512 | 0.239 | 0.588 | – | 0.722 | 0.374 | 0.228 | 0.197 | 0.175 | 0.172
LOU-NH91 | 0.82 | 0.742 | 0.86 | 0.61 | 0.841 | 0.751 | 0.844 | 0.654 | 0.782 | 0.769 | 0.837 | 0.746 | 0.557 | 0.543 | 0.585 | 0.491 | 0.306 | 0.359 | 0.418 | 0.336
LU99A | 0.811 | 0.669 | 0.72 | 0.579 | 0.541 | 0.547 | 0.6 | 0.543 | 0.509 | 0.404 | 0.252 | 0.263 | 0.308 | 0.3 | 0.347 | 0.325 | 0.359 | 0.25 | 0.204 | 0.318
LXF-289 | 0.971 | 0.959 | 0.999 | 0.943 | 0.816 | 0.814 | 0.824 | 0.757 | 0.638 | – | 0.617 | 0.513 | 0.834 | 0.727 | 0.828 | 0.779 | 0.706 | 0.648 | 0.634 | 0.588
NCI-H358 | – | – | – | – | 0.56 | 0.72 | 0.713 | 0.292 | 0.14 | 0.143 | 0.116 | 0.107 | 0.364 | 0.393 | 0.469 | 0.184 | 0.242 | 0.285 | 0.295 | 0.239
NCI-H650 | – | – | – | – | 0.777 | 0.563 | 0.735 | 0.595 | 0.989 | 0.937 | 0.866 | 0.578 | 0.911 | 0.751 | 0.696 | 0.746 | 0.809 | 0.639 | 0.605 | 0.677
NCI-H661 | – | – | – | – | 0.944 | 0.969 | 0.921 | 0.742 | 0.584 | – | 0.444 | 0.291 | 0.456 | 0.397 | 0.422 | 0.286 | 0.931 | 0.928 | 0.822 | 0.293
NCI-H1395 | 1.35 | 1.08 | 1.1 | 1.05 | – | – | – | – | 1.25 | – | 1.04 | 0.846 | 0.603 | 0.636 | 0.642 | 0.39 | 0.742 | 0.703 | 0.576 | 0.53
NCI-H1563 | – | – | – | – | 0.893 | 0.993 | 0.889 | 0.674 | – | – | – | – | 0.653 | 0.523 | 0.614 | 0.665 | 0.533 | 0.471 | 0.527 | 0.529
NCI-H1703 | 1.03 | 0.319 | 0.215 | 0.148 | 0.588 | 0.209 | 0.141 | 0.157 | – | – | – | – | 0.243 | 0.21 | 0.197 | 0.177 | – | – | – | –
NCI-H1793 | 0.569 | 0.476 | 0.932 | 0.39 | – | – | – | – | 0.398 | 0.429 | 0.325 | 0.253 | 0.313 | 0.333 | 0.256 | 0.195 | 0.23 | 0.207 | 0.199 | 0.187
NCI-H2342 | – | – | – | – | – | – | – | – | 0.887 | 0.749 | 0.71 | 0.682 | – | – | – | – | 0.662 | 0.637 | 0.597 | 0.582
